Laboratory results as given in patent EP2910557A1, “Enantiopure tetrasubstituted pyrrolidines as scaffolds for proteasome inhibitors and medicinal applications thereof” (Ikerchem, S.L., priority 2014, dated 2015).

How the values were obtained:
Assay in all cases: Cancer cell growth inhibition, 72 h treatment
Type in all cases: cell-based
A431 = settings: Homo sapiens, A-431, Epidermoid A431, Alamar Blue
Description: (§1) Cell culture-based assays were used to evaluate the ability of compounds of the invention to inhibit cancer cell growth.
(§2) Cells were obtained from the American Type Culture Collection (ATCC) and the European Collection of Cell Cultures. Cells were thawed in their appropriate media plus supplements (see table below). Cells were passaged at confluence by washing once in HBSS cation-free followed by a 3 minutes incubation with trypsin ([0.5 µg/ml]/EDTA [0.2 µg/ml]) (Gibco-BRL, 15400054) solution in HBSS at 37°C (except non-adherent cell lines - hematologic), and transferred to their appropriate media plus supplements. Prior to seeding at defined cell concentration, cells were recovered in medium, centrifuged, taken up in medium and counted.
(§3) All treatments were performed in triplicate. Experiments were carried out in 96-well cell culture plates (Cultek) and the cell lines seeded at the density mentioned in the table above and cultured at 37°C with 5% CO2. After 24h, media were supplemented by 100 µl/well of diluted test compound at variable final concentrations and incubated for 72 hours. Then, AlamarBlue® Reagent (Biosource DAL1100) was added to each well and incubated at 37°C for 4 hours. Relative fluorescent intensity that correlates with the number of living cells was read in a Cytofluor plate reader (Millipore) at 535/590 nm (Excitation/emission). After reading the AlamarBlue® signal, the hexosaminidase activitity was measured according to the following protocol: medium was removed and cells were washed once with PBS. 60 µl of substrate solution (p-nitrophenol-N-acetyl-beta-D-glucosaminide 7.5 mM [Sigma N-9376], sodium citrate 0.1 M, pH 5.0, 0.25% Triton X-1 00) was added to each well and incubated at 37°C for 1-2 hours; after this incubation time, a bright yellow colour appears; then, plates could be developed by adding 90 µl of developer solution (Glycine 50 mM, pH 10.4; EDTA 5 mM), and absorbance was recorded at 405 nm.
(§4) Note: In all cases assays were performed in Alamar Blue with the exception of those indicated (* = Hexosaminidase assay)

A549 = settings: Homo sapiens
Description: as §1, §2, §3, §4

COLO 205 = settings: Homo sapiens, Colon cancer COLO 205, Alamar Blue
Description: as §1, §2, §3, §4

DU-145 = settings: Homo sapiens, Prostate cancer DU-145, Alamar Blue
Description: as §1, §2, §3, §4

Daoy = settings: Homo sapiens, Brain Daoy, Alamar Blue
Description: as §1, §2, §3, §4

HCT-116 = settings: Homo sapiens, Colon cancer HCT-116, Alamar Blue
Description: as §1, §2, §3, §4

HT-1080 = settings: Homo sapiens, Fibrosarcoma HT-1080, Alamar Blue
Description: as §1, §2, §3, §4

HT-29 = settings: Homo sapiens, Colon cancer HT-29, Alamar Blue
Description: as §1, §2, §3, §4

HeLa = settings: Homo sapiens, Cervical HeLa, Alamar Blue
Description: as §1, §2, §3, §4

HepG2 = settings: Homo sapiens, Liver cancer HepG2, Alamar Blue
Description: as §1, §2, §3, §4

Jurkat = settings: Homo sapiens, Hematologic Jurkat, Alamar Blue
Description: as §1, §2, §3, §4

K562 = settings: Homo sapiens, Hematologic K562, Alamar Blue
Description: as §1, §2, §3, §4

LNCaP = settings: Homo sapiens, Prostate cancer LNCaP, Alamar Blue
Description: as §1, §2, §3, §4

LS174T = settings: Homo sapiens, Colon cancer LS174T, Alamar Blue
Description: as §1, §2, §3, §4

MDA-MB-231 = settings: Homo sapiens, Breast cancer MDA-MB-231, Alamar Blue
Description: as §1, §2, §3, §4

MDA-MB-435 = settings: Homo sapiens, Melanoma MDA-MB-435, Alamar Blue
Description: as §1, §2, §3, §4

MDA-MB-468 = settings: Homo sapiens, Breast cancer MDA-MB-468, Alamar Blue
Description: as §1, §2, §3, §4

MIA PaCa-2 = settings: Homo sapiens
Description: as §1, §2, §3, §4

NCI-H1650 = settings: Homo sapiens
Description: as §1, §2, §3, §4

NCI-H1975 = settings: Homo sapiens
Description: as §1, §2, §3, §4

OVCAR-3 = settings: Homo sapiens
Description: as §1, §2, §3, §4

PC-3 = settings: Homo sapiens, Prostate cancer PC-3, Alamar Blue
Description: as §1, §2, §3, §4

RAMOS = settings: Homo sapiens, Hematologic RAMOS, Alamar Blue
Description: as §1, §2, §3, §4

RCC 786-O = settings: Homo sapiens, 786-0, Renal RCC 786-O, Alamar Blue
Description: as §1, §2, §3, §4

RPMI-8226 = settings: Homo sapiens, Multiple mieloma RPMI-8226, Alamar Blue
Description: as §1, §2, §3, §4

SK-Mel-28 = settings: Homo sapiens, Melanoma SK-Mel-28, Alamar Blue
Description: as §1, §2, §3, §4

SK-OV-3 = settings: Homo sapiens, Ovarian cancer SK-OV-3, Alamar Blue
Description: as §1, §2, §3, §4

SW480 = settings: Homo sapiens
Description: as §1, §2, §3, §4

T47D = settings: Homo sapiens, Breast cancer T47D, Alamar Blue
Description: as §1, §2, §3, §4

U-373 MG = settings: Homo sapiens, U373 MG, Brain U-373 MG
Description: as §1, §2, §3, §4

U-87 MG = settings: Homo sapiens, Brain U-87 MG, Hexosaminidase assay (*)
Description: as §1, §2, §3, §4

Structure (SMILES): CC(C)C[C@H](NC(=O)[C@H]1N[C@@H](c2ccccc2)[C@@H]([N+](=O)[O-])[C@@H]1c1ccccc1)B(O)O [Example 4, (R)-3-methyl-1-((2S,3R,4S,5S)-4-nitro-3,5-diphenylpyrrolidine-2-carboxamido)butylboronic acid]
- EC50 (A431): 970 nM
- EC50 (A549; Lung cancer A549, Alamar Blue): 4000 nM
- EC50 (COLO 205): 3800 nM
- EC50 (DU-145): 1200 nM
- EC50 (Daoy): 1300 nM
- EC50 (HCT-116): 1300 nM
- EC50 (HT-1080): 1700 nM
- EC50 (HT-29): 1500 nM
- EC50 (HeLa): 8300 nM
- EC50 (HepG2): 380 nM
- EC50 (Jurkat): 1700 nM
- EC50 (K562): 2000 nM
- EC50 (LNCaP): 110 nM
- EC50 (LS174T): 550 nM
- EC50 (MDA-MB-231): 2100 nM
- EC50 (MDA-MB-435): 370 nM
- EC50 (MDA-MB-468): 790 nM
- EC50 (MIA PaCa-2; Pancreatic cancer MIA PaCa-2, Alamar Blue): 3000 nM
- EC50 (NCI-H1650; Lung cancer NCI-H1650, Alamar Blue): 790 nM
- EC50 (NCI-H1975; Lung cancer NCI-H1975, Alamar Blue): 41000 nM
- EC50 (OVCAR-3; Ovarian cancer OVCAR-3, Alamar Blue): 890 nM
- EC50 (PC-3): 2300 nM
- EC50 (RAMOS): 1000 nM
- EC50 (RCC 786-O): 1700 nM
- EC50 (RPMI-8226): 270 nM
- EC50 (SK-Mel-28): 780 nM
- EC50 (SK-OV-3): 2200 nM
- EC50 (SW480; Colon cancer SW480, Alamar Blue): 610 nM
- EC50 (T47D): 2100 nM
- EC50 (U-373 MG; Alamar Blue): 7300 nM
- EC50 (U-87 MG): 4200 nM

Structure (SMILES): CC(C)C[C@H](NC(=O)[C@@H]1N[C@H](c2ccccc2)[C@@H]([N+](=O)[O-])[C@@H]1c1ccco1)B(O)O [Example 11, (R)-1-((2R,3R,4S,5R)-3-(furan-2-yl)-4-nitro-5-phenylpyrrolidine-2-carboxamido)-3-methylbutylboronic acid]
- EC50 (A431): 20 nM
- EC50 (A549; Lung cancer A549, Hexosaminidase assay (*)): 1300 nM
- EC50 (COLO 205): 202 nM
- EC50 (DU-145): 570 nM
- EC50 (Daoy): 290 nM
- EC50 (HCT-116): 280 nM
- EC50 (HT-1080): 890 nM
- EC50 (HT-29): 2500 nM
- EC50 (HeLa): 3100 nM
- EC50 (HepG2): 220 nM
- EC50 (Jurkat): 40 nM
- EC50 (K562): 1000 nM
- EC50 (LNCaP): 150 nM
- EC50 (LS174T): 20 nM
- EC50 (MDA-MB-231): 1100 nM
- EC50 (MDA-MB-435): 170 nM
- EC50 (MDA-MB-468): 120 nM
- EC50 (MIA PaCa-2; Pancreatic cancer MIA PaCa-2, Hexosaminidase assay (*)): 850 nM
- EC50 (NCI-H1650; Lung cancer NCI-H1650, Hexosaminidase assay (*)): 1200 nM
- EC50 (NCI-H1975; Lung cancer NCI-H1975, Hexosaminidase assay (*)): 840 nM
- EC50 (OVCAR-3; Ovarian cancer OVCAR-3, Hexosaminidase assay (*)): 280 nM
- EC50 (PC-3): 680 nM
- EC50 (RAMOS): 160 nM
- EC50 (RCC 786-O): 1000 nM
- EC50 (RPMI-8226): 60 nM
- EC50 (SK-Mel-28): 800 nM
- EC50 (SK-OV-3): 330 nM
- EC50 (SW480; Colon cancer SW480, Hexosaminidase assay (*)): 1100 nM
- EC50 (T47D): 1300 nM
- EC50 (U-373 MG; Hexosaminidase assay (*)): 1100 nM
- EC50 (U-87 MG): 890 nM
